Measured values reported in PMC11435625, “In Vitro Hepatic Clearance Evaluations of Per- and Polyfluoroalkyl Substances (PFAS) across Multiple Structural Categories” (Toxics, 2024).

Legend:
[1] = tested on: pooled primary human hepatocyte suspensions; test: Hepatic clearance assay (substrate depletion, LC-MS); conditions: in µL/min/10^6 cells; for CLint for HTTK: CLint value carried into HTTK/IVIVE; for in vitro CLint exp assay / Unadj Clint: pooled primary human hepatocyte suspensions; for Unadj Clint: unadjusted hepatic intrinsic clearance, Table S4
Experimental: The rate of hepatic clearance was determined as previously described for a set of PFAS [11]. Analysis was conducted across two laboratories at the Division of Translational Toxicology (DTT) at the National Institute of Environmental Health Sciences (NIEHS) and the Center for Computational Toxicology and Exposure at the USEPA. The PFAS analyzed in each lab can be found in the Supplementary Materials.
The hepatic clearance assay was performed at both the DTT and EPA laboratories as described below. The pooled human hepatocyte suspensions used in this work were purchased commercially and meet the ethical and scientific standards described in the Human Ethics Rule (40 CFR 26). The suspensions were prepared from hepatocytes obtained from de-identified donors by a commercial vendor.
PFAS stock solutions prepared in DMSO were added to prewarmed William’s E medium to make a 2X working stock solution (2 µM). […] The working stock solutions were then transferred to a 96-well polypropylene plate and placed in an incubator at 37 °C with 5% carbon dioxide prior to adding cells. Cryopreserved pooled primary human hepatocyte suspensions (50-donor pool, mixed gender; BioIVT; Westbury, NY, USA) were thawed and transferred to vials containing hepatocyte thawing medium. After centrifuging for 5–10 min at 100× g, thawing medium was removed, being careful not to disturb the cell pellet. The primary human hepatocytes were then resuspended in pre-warmed complete Williams E medium to achieve a cell density of ~1.0 × 10^6 viable cells/mL as determined by Trypan Blue exclusion. Cells were then added to the 96-well incubation plates containing PFAS to achieve a final density of ~0.5 × 10^6 viable cells/mL and a 1 μM assay concentration (Ctest), then placed in incubator on a shaker at 300 rpm. Triplicate samples were removed from the incubator at time points ranging from 0 to 240 min and quenched with a total crash in 2–3 volumes of ice-cold acetonitrile. Samples were spun at 4000× g for 20 min, and supernatants were transferred to new tubes and stored at <−70 °C until analysis. Media-only (no cell) and/or heat-inactivated hepatocytes were included as negative controls for each chemical to evaluate and estimate chemical loss due to nonmetabolic processes (e.g., hydrolysis). Phenacetin was included in all runs as an assay reference compound; EPA also included propranolol as an additional reference compound.
Assay samples were diluted in mobile phase and analyzed using a Thermo Vanquish UPLC system with a Thermo Hypersil Gold aQ C18 column (100 × 2.1 mm, 1.9 […], Thermo Fisher Scientific Inc.) coupled to a Q Exactive Plus mass spectrometer. Gradient elution was used in the chromatographic separations using water with 20 mM ammonium acetate (mobile phase A) and methanol (mobile phase B), with the following gradient program: 0.5–7 min, 30%–90% B; 7–8 min, 90% B; 8–9 min, 90%–30% B; and 9–10 min, 30% B. The first minute of each injection was diverted to waste to avoid introduction of excessive salts from incubation medium. Analysis was detected in negative ion mode. Samples were quantified against an external, matrix-matched calibration curve. Additional methodologic information is available in Table S2.
To perform SPE, a positive-pressure manifold was employed along with Oasis WAX µElution plates and Oasis HLB 30 mg plates (Waters, Milford, MA, USA) for PFAS and positive-control extraction, respectively. […] The sorbent was then washed with 1% formic acid and water. Samples were eluted in 2% ammonia in methanol for analysis. Similarly, HLB plates were conditioned with methanol and water before sample was loaded onto the sorbent. The wells were then washed with 5% methanol in water and water before elution in methanol. For samples not undergoing SPE, the supernatant of the crashed assay sample was diluted in mobile phase prior to analysis. The first 1.5 min of the run was diverted to waste to prevent salt contamination.

[2] = tested on: plasma protein; conditions: fraction unbound in plasma, input for IVIVE calculations; cited from earlier work
[3] = IVIVE: steady-state concentration (Css), generic HTTK model; parameters: species or system human; conditions: for Css (mg/L) / Css (uM): Assuming 1 mg/kg/day dose rate, BW 70 kg; for CLhep: QL 1500000 uL/min; for Fub: fub=fup/(B:P), Fub set to 1 if needed; for CLint: scaled to whole liver: HPGL 110 mill cells/g, Vl 1596 g
Experimental: IVIVE was performed as previously described to calculate human steady-state concentrations (Css). Briefly, experimental plasma protein binding data presented elsewhere were transformed to fraction unbound in blood using blood-to-plasma partitioning values. Experimental Clint values generated here are used in conjunction with relevant liver scalars to scale up to estimate whole liver clearance. […] Once Css values were established, these were used with the PFAS-specific in vitro POD data to calculate the administered equivalent doses (AEDs) using reverse dosimetry. […] The fifth-percentile AC50 value was used to define the in vitro POD. All relevant inputs, scalars, and calculations are provided in Supplementary Information, as indicated in the results.

[4] = tested on: pooled primary human hepatocyte suspensions; test: Bayesian (MCMC, invitroTKstats) analysis of hepatic clearance data; conditions: for Clint.1.Med: Level-4 Bayesian estimate, posterior median, Clint.1 series (Clint.10 all NA)
From the text: Markov Chain Monte Carlo was employed in a Bayesian analysis to estimate uncertainty of the hepatic clearance point measures as previously described, but with some modifications [10]. Briefly, after organizing PFAS-level data into a single file, the relationship between the relevant measurement process parameters was described in a graphic model in JAGS language [13] interfaced through R. For hepatic clearance data, the model describes the PFAS-specific mass spectrometric response factor between analyte peak ratio (to internal standard) and chemical concentration. […] The assumed prior for whether the chemical degraded abiotically in vitro followed a Bernoulli distribution with a 5% chance of abiotic degradation. Separate biotic and abiotic components for chemical elimination were estimated, each with a slope following an assumed uniform prior distribution bounded between the zero and the -log (limit of quantitation/Ctest). In scenarios where an external calibration without internal standard was used, the response factor was calculated using the analyte peak alone, introducing additional uncertainty due to the inability to normalize for recovery issues. The model was analyzed jointly by JAGS using five Markov chains. Convergence was identified by requiring the five chains to be consistent, as indicated by the potential scale reduction factor [14] being less than 1.1. The analysis was performed using EPA-developed R package invitroTKstats, available upon request.

O=C(O)C(F)(F)C(F)(F)C(F)(F)C(F)(F)C(F)(F)C(F)(F)C(F)(F)C(F)(F)C(F)(F)C(F)F
CLint for HTTK [1]: 0 | in vitro CLint exp assay [1]: 0 | Mean fu [2]: 0.0015 | Css (mg/L) [3]: 160.90 mg/L | Css (uM) [3]: 294.69 µM | CLhep [3]: 0.000 L/h | Fub [3]: 0.002727 | CLint [3]: 0 µL/min | Clint.1.Med [4]: 0

O=S(=O)(OCC(F)(F)F)C(F)(F)C(F)(F)C(F)(F)C(F)(F)F
Clint.1.Med [4]: 0

O=S(=O)(O)CCC(F)(F)C(F)(F)C(F)(F)C(F)(F)F
CLint for HTTK [1]: 4.28 | in vitro CLint exp assay [1]: 4.28 | Mean fu [2]: 0.005 | Css (mg/L) [3]: 6.27 mg/L | Css (uM) [3]: 19.12 µM | CLhep [3]: 0.408 L/h | Fub [3]: 0.009091 | CLint [3]: 751397 µL/min | Clint.1.Med [4]: 0

O=S(=O)(O)CCC(F)(F)C(F)(F)C(F)(F)C(F)(F)C(F)(F)C(F)(F)C(F)(F)C(F)(F)F
CLint for HTTK [1]: 1.53 | in vitro CLint exp assay [1]: 1.53 | Mean fu [2]: 0.0396 | Css (mg/L) [3]: 1.81 mg/L | Css (uM) [3]: 3.42 µM | CLhep [3]: 1.146 L/h | Fub [3]: 0.072 | CLint [3]: 268607 µL/min | Clint.1.Med [4]: 0

CNS(=O)(=O)C(F)(F)C(F)(F)C(F)(F)C(F)(F)C(F)(F)C(F)(F)C(F)(F)C(F)(F)F
Clint.1.Med [4]: 48.7

O=C(O)C(F)(F)OC(F)(F)C(F)(F)OC(F)(F)F
CLint for HTTK [1]: 0 | in vitro CLint exp assay [1]: 0 | Mean fu [2]: 0.0031 | Css (mg/L) [3]: 77.85 mg/L | Css (uM) [3]: 263.04 µM | CLhep [3]: 0.000 L/h | Fub [3]: 0.005636 | CLint [3]: 0 µL/min | Clint.1.Med [4]: 0

C[N+](C)(C)CCCNS(=O)(=O)C(F)(F)C(F)(F)C(F)(F)C(F)(F)C(F)(F)C(F)(F)C(F)(F)C(F)(F)F
Clint.1.Med [4]: 0

O=S(=O)([O-])C(F)(F)C(F)(F)C(F)(F)C(F)(F)F.[K+]
CLint for HTTK [1]: 0 | in vitro CLint exp assay [1]: 0 | Mean fu [2]: 0.0046 | Css (mg/L) [3]: 52.47 mg/L | Css (uM) [3]: 174.92 µM | CLhep [3]: 0.000 L/h | Fub [3]: 0.008364 | CLint [3]: 0 µL/min | Clint.1.Med [4]: 0

O=C(O)C=C(C(F)(F)F)C(F)(F)F [3,3-Bis(trifluoromethyl)-2-propenoic acid]
Unadj Clint [1]: 1.82 | Clint.1.Med [4]: 0

O=C(O)CCC(F)(F)C(F)(F)C(F)(F)F [3:3 Fluorotelomer carboxylic acid]
Unadj Clint [1]: 0.00 | Clint.1.Med [4]: 0

O=C(O)C(F)(F)C(F)(F)C(F)F [4H-Perfluorobutanoic_acid]
Clint.1.Med [4]: 0

N.O=C(O)C(F)(F)C(F)(F)C(F)(F)C(F)(F)C(F)(F)C(F)(F)C(F)(F)F [Ammonium_perfluorooctanoate]
Clint.1.Med [4]: 10.8

CNS(=O)(=O)C(F)(F)C(F)(F)C(F)(F)C(F)(F)C(F)(F)C(F)(F)C(F)(F)C(F)(F)F [N-Methylperfluorooctanesulfonamide]
Unadj Clint [1]: 33.23 | metabolic clearance call, experimental and Bayesian analyses in agreement ([4]; both analyses agreed): metabolized

O=C(Cl)C(F)(F)C(F)(F)C(F)(F)C(F)(F)C(F)(F)C(F)(F)C(F)(F)F [Pentadecafluorooctanoyl chloride]
Unadj Clint [1]: 0.00 | Clint.1.Med [4]: 0

O=C(O)C(F)(F)C(F)(F)C(F)(F)OC(F)(F)F [Perfluoro(4-methoxybutanoic)_acid]
Clint.1.Med [4]: 0

O=S(=O)(Cl)C(F)(F)C(F)(F)C(F)(F)C(F)(F)C(F)(F)C(F)(F)C(F)(F)C(F)(F)F [Perfluoro-1-octanesulfonyl_chloride]
Clint.1.Med [4]: 0

O=C(O)C(F)(F)C(F)(F)OC(F)(F)F [Perfluoro-3-methoxypropanoic acid]
Unadj Clint [1]: 0.00 | Clint.1.Med [4]: 0

O=C(O)C(F)(F)C(F)(F)C(F)(F)OC(F)(C(F)(F)F)C(F)(F)F [Perfluoro-4-isopropoxybutanoic_acid]
Clint.1.Med [4]: 0

O=S(=O)(O)C(F)(F)C(F)(F)C(F)(F)C(F)(F)C(F)(F)C(F)(F)C(F)(F)F [Perfluoroheptanesulfonic_acid]
Clint.1.Med [4]: 0

O=C(Cl)C(F)(F)C(F)(F)C(F)(F)C(F)(F)C(F)(F)C(F)(F)F [Perfluoroheptanoyl chloride]
Unadj Clint [1]: 0.00 | Clint.1.Med [4]: 0

NS(=O)(=O)C(F)(F)C(F)(F)C(F)(F)C(F)(F)C(F)(F)C(F)(F)F [Perfluorohexanesulfonamide]
Unadj Clint [1]: 0.00 | Clint.1.Med [4]: 0

O=S(=O)(O)C(F)(F)C(F)(F)C(F)(F)C(F)(F)C(F)(F)C(F)(F)F [Perfluorohexanesulfonic_acid]
Clint.1.Med [4]: 0

O=C(O)C(F)(F)C(F)(F)C(F)(F)C(F)(F)C(F)(F)C(F)(F)C(F)(F)C(F)(F)F [Perfluorononanoic_acid]
Clint.1.Med [4]: 10.4

O=S(=O)(O)C(F)(F)C(F)(F)C(F)(F)C(F)(F)C(F)(F)C(F)(F)C(F)(F)C(F)(F)F [Perfluorooctanesulfonate]
Unadj Clint [1]: 0.00 | Clint.1.Med [4]: 0

O=C(O)C(F)(F)C(F)(F)C(F)(F)C(F)(F)C(F)(F)C(F)(F)C(F)(F)F [Perfluorooctanoic_acid]
Clint.1.Med [4]: 0

O=C(O)C(F)(F)C(F)(F)C(F)(F)C(F)(F)F [Perfluoropentanoic_acid]
Clint.1.Med [4]: 0

O=C(O)C(F)(F)C(F)(F)F [Perfluoropropanoic_acid]
Clint.1.Med [4]: 0

O=C(O)C(F)(F)C(F)(F)C(F)(F)C(F)(F)C(F)(F)C(F)(F)C(F)(F)C(F)(F)C(F)(F)C(F)(F)C(F)(F)C(F)(F)C(F)(F)F [Perfluorotetradecanoic acid (PFTeDA)]
Clint.1.Med [4]: 0

O=C(O)C(F)(F)C(F)(F)C(F)(F)C(F)(F)C(F)(F)C(F)(F)C(F)(F)C(F)(F)C(F)(F)C(F)(F)C(F)(F)C(F)(F)F [Perfluorotridecanoic_acid]
Clint.1.Med [4]: 0

O=S(=O)([O-])C(F)(F)C(F)(F)C(F)(F)C(F)(F)C(F)(F)C(F)(F)F.[K+] [Potassium perfluorohexanesulfonate]
Unadj Clint [1]: 0.00 | Clint.1.Med [4]: 0

O=S(=O)([O-])C(F)(F)C(F)(F)C(F)(F)C(F)(F)C(F)(F)C(F)(F)C(F)(F)C(F)(F)F.[K+] [Potassium_perfluorooctanesulfonate]
Clint.1.Med [4]: 0

O=S(=O)([O-])C(F)(F)C(F)(F)C(F)(F)C(F)(F)C(F)(F)C(F)(F)C(F)(F)C(F)(F)C(F)(F)C(F)(F)F.[Na+] [Sodium perfluorodecanesulfonate (NaPFDS)]
CLint for HTTK [1]: 0 | in vitro CLint exp assay [1]: 0.00 | Mean fu [2]: 0.0528 | Css (mg/L) [3]: 4.57 mg/L | Css (uM) [3]: 7.62 µM | CLhep [3]: 0.000 L/h | Fub [3]: 0.096 | CLint [3]: 0 µL/min

O=S(=O)([O-])C(F)(F)C(F)(F)C(F)(F)C(F)(F)C(F)(F)C(F)(F)C(F)(F)C(F)(F)C(F)(F)C(F)(F)F.[Na+] [Sodium_perfluorodecanesulfonate]
Clint.1.Med [4]: 4.87
